In patent US20060013899A1, “Topical compositions for treatment of skin disorders and methods of use thereof” (priority 2004, published 2006):

How the values were obtained:
interleukin-8 = details: cited from earlier work
[1] = only known side effect; cited from earlier work
[2] = tested on: mild to moderate eczema lesions
Text: Anecdotally, zinc pyrithione appears to produce a transient histamine blocking or inhibiting mechanism.

[3] = 24 patients, 0.25% zinc pyrithione spray; cited from earlier work
[4] = tested on: eczema, psoriasis and other forms of immuno-dysfunctional dermatitis; test: control of eczema, psoriasis and other immuno-dysfunctional dermatitis by the individual ingredients and their combination; assay type: in vivo, human
Text: The present invention includes zinc pyrithione, which has been used in other preparations for various types of skin conditions. Zinc pyrithione may be used to control mild to possibly moderate eczema and psoriasis.
The explanations above provide some validation of how these three ingredients may provide limited benefits, but cannot explain the dynamics of their relationship in the control of pro-inflammatory cytokines and the speed of the repair and healing process.

[5] = suspended in a water solution, topical, mild to moderate eczema lesions

Row | Substance | tumor necrosis factor-alpha mediated interleukin-8 expression (interleukin-8) | normal allergic reaction, share of the population [1] | erythema ([2]; during the period of itch relief) | duration of itch relief [2, 5] | time to relief of the itching sensation [2, 5] | effect on the efficacy of clobetasol propionate [3] | control of disease ([4]; ingredient used individually or the three combined) | control of disease in the moderate to severe ranges ([4]; zinc pyrithione by itself)
1 | epigallocatechin-3-gallate | inhibits tumor necrosis factor-alpha mediated interleukin-8 expression in a dose related manner | – | – | – | – | – | – | –
2 | zinc pyrithione | – | less than one | erythema was reduced | up to six | fifteen to thirty | did not appear to enhance the efficacy of clobetasol propionate | some degree of control benefits for mild and possibly moderate eczema, psoriasis | fails to control these diseases in the moderate to severe ranges
